Measured values taken from patent US8367829B2, “Bi-functional pyrazolopyridine compounds” (Gilead Sciences, Inc., priority 2010, dated 2013).

Assays:
[1] = molecular target: T1, Human recombinant PDE4B2 (Homo sapiens, UniProt Q07343); assay: Inhibition of PDE4B2 enzyme activity (PDE Glo Assay); type: biochemical; settings: human recombinant PDE4B2, 50 nM cAMP; read-out: PDE4 IC50
T1 construct: purchased BPS Bioscience
Procedure: Inhibition of PDE4B4 Enzyme Activity
The inhibitory activity of test compounds were determined using the PDE Glo Assay (Promega, V1361). The PDE-Glo Reaction Buffer was prepared (1 mL 5× buffer+4 mL water) and 150 nM solution of test compound dissolved in the Reaction Buffer, followed by 1:3 serial dilutions into Reaction Buffer. […] Human recombinant PDE4B2 (BPS Bioscience) was added to test compound in Reaction Buffer at a concentration of 0.12 nM per reaction. The enzyme and test compound were pre-incubated together at rt for 10 min. 50 nM of the enzyme substrate cAMP was then added to initiate the enzyme reaction, with the reaction terminated after one hour. Termination Buffer (1 mL 5× termination buffer+3.9 mL water+100 μL of 100 mM IBMX (ICN Chemicals, in DMSO)), was added to each reaction well to terminate the reaction. Detection Buffer (1 mL 5×PDE-Glo Detection buffer+3.96 mL water+40 μL PKA (supplied in kit)) was added to the cAMP-enzyme-test compound mix and this secondary reaction proceeded for 20 minutes at rt. An equal volume of Kinase Glo Reagent was then added to the reaction mixture and after 10 min luminescence was measured using a luminometer (EnVision, 0.1 sec read for luminescence). Luminescence values were […] related to levels of cAMP in the reaction mixture. Data were plotted as relative light units (RLU) versus test compound concentration and the IC50 determined using GraphPad Prism 5.0, using a nonlinear curve fit in a single-site binding model.
IC50 determinations for the compounds presented above are seen in the first column of Table 1 (PDE4 IC50).

[2] = molecular target: T2, human recombinant beta-2 adrenoreceptors (Homo sapiens, UniProt P07550); assay: Beta-2 adrenoceptor binding assay, displacement of [3H](−)CGP-12177; settings: CHO cells expressing human beta-2 adrenoreceptors, [3H](−)CGP-12177 0.3 nM, 120 min
T2 construct: expressed in transfected cells; host or cells: CHO cells
T2 sequence (P07550 whole entry): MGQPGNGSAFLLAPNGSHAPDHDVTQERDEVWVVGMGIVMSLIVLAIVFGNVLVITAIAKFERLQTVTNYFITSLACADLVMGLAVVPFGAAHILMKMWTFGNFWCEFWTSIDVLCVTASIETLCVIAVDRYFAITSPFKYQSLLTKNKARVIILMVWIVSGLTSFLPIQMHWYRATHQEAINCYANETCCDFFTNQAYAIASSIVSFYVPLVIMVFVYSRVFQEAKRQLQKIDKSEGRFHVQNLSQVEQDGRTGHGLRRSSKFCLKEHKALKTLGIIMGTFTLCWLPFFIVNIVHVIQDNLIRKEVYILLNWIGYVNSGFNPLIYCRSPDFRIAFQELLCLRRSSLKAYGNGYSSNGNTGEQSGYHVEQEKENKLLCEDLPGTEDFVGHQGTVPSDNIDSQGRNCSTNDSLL
Procedure: Beta-2 Adrenoceptor Binding Assay
Test compounds were incubated for 120 min with Chinese hamster oocyte (CHO) cells expressing the human recombinant beta-2 adrenoreceptors. Binding of test compounds to the beta-2 adrenoreceptors was determined by measuring the displacement of the radiolabeled ligand [^3H](−)CGP-12177 (0.3 nM) from the receptor measured by a scintillation counting. Concentration response curves were generated for test compounds and the IC50 (molar concentration of the compound which produced 50% inhibition for the maximal response for that compound) was determined. These assays were performed using a protocol based on the original description of the assay by Joseph et al., (2004) Naun.-Sch. Arch. Pharm.; 369:525-532.
IC50 determinations for the compounds presented above are seen in the second column of Table 1 (Beta 2 IC50).

[3] = molecular target: T2, human recombinant beta-2 adrenoreceptors; assay: Functional agonism of human recombinant beta-2 adrenoreceptors expressed in CHO cells (cAMP, HTRF); type: cell-based; settings: cAMP elevation, 30 min
Procedure: Functional Agonism of Human Recombinant Beta-2 Adrenoreceptors Expressed in Chinese Hamster Oocytes (CHO)
Test compounds were incubated for 30 min with CHO cells expressing the human recombinant beta-2 adrenoreceptors. Agonism of the receptor was measured by the elevation of intracellular cyclic-AMP over control levels detected using a homogeneous time resolved fluorescence (HTRF) format. Compounds were determined to be “full” or “partial” agonists based on the maximum level of cAMP accumulated compared to the control compound isoproterenol which is a full agonist in this assay system. Concentration response curves were generated for test compounds and the EC50 (molar concentration of the agonist which produced 50% of the maximal response for that compound) was determined. These assays were performed using a protocol based on the original description of the assay by Baker, J. G. (2005) Brit. J. Pharmacol.; 144:317-322.
EC50 determinations for the compounds presented above are seen in the third column of Table 1 (Beta 2 EC50).

[4] = tested on: LPS-induced TNF-α release from human peripheral blood mononuclear cells (PBMC); assay: Inhibition of LPS-induced TNF-α release from human PBMC; type: cell-based; settings: LPS 0.4 ng/mL, 6 h, presence or absence of ICI-118551 not given
Description: Inhibition of Lipopolysaccharide (LPS)-Induced Tumour Necrosis Factor Alpha (TNF-α) Release from Human Peripheral Blood Mononuclear Cells (PBMC)
Human whole blood was drawn from donors and cell purification initiated within two hours. Peripheral blood mononuclear cells (PBMC) were purified using a standard Ficoll gradient purification technique and aliquoted at a concentration of 100,000 cells/well in 96 well plates. Beta-2 adrenoreceptor agonists are also anti-inflammatory for some immune cells expressing the receptor and in this assay they can inhibit tumor necrosis factor-alpha (TNF-α) production. Therefore PBMC were pre-incubated for 30 min in the presence of the beta-2 adrenoreceptor antagonist ICI-118551 (3-(isopropylamino)-1-[(7-methyl-4-indanyl)oxy]butan-2-ol) (10 μM) to determine the PDE4 directed activity of test compounds, and in the absence of ICI-118551 for the combined PDE4 and beta-2 receptor directed activity. Test compounds were dissolved in DMSO and diluted in buffer (final DMSO concentration of 0.1% v/v) and were then added to the cell suspensions and pre-incubated for a further 1 h at 37° C. LPS solution was then added (0.4 ng/mL) and the cells incubated for a further 6 h. At the end of the incubation period the cell supernatants were collected and TNF-α was measured using a Procarta Cytokine Assay Kit (Affymetrix, Santa Clara, Calif.) according to the manufacturers' instructions. Data were analyzed using MiraiBio Masterplex QT v4.0 software (MasterPlex Version 1.0.1.18 Copyright 2008, Hitachi Software Engineering Co., Ltd) and used to extrapolate Mean Fluorescence Intensity (MFI) into concentrations of TNF-α and mean values from replicate wells were determined. Inhibition curves were plotted using a nonlinear curve fit employing a single-site binding model to determine the IC50 value for each test compound in the presence or absence of ICI-118551 using GraphPad Prism 5 for Windows, version 5.02 (GraphPad Software, San Diego Calif.).
EC50 determinations for the compounds presented above are seen in the fourth column of Table 1 (PBMC TNF EC50).

T1 sequence (Q07343 1-564 isoform Q07343-2): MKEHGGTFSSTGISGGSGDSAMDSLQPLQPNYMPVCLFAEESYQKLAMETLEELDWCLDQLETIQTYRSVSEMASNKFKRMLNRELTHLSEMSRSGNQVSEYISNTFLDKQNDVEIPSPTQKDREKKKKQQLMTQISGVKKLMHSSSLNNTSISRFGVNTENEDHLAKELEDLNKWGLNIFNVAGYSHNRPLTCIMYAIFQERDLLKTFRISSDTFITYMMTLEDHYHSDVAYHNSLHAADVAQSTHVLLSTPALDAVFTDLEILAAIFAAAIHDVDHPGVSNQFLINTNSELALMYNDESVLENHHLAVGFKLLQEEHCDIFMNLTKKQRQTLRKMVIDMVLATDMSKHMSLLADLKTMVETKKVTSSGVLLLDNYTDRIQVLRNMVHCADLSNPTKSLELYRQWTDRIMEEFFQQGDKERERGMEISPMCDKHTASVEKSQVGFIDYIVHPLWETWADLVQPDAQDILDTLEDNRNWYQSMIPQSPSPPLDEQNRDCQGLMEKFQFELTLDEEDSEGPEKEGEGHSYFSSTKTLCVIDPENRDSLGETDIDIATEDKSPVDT

| Structure (SMILES) | IC50 [1] [nM] | IC50 [2] [nM] | EC50 [3] [nM] | EC50 [4] [nM] |
| --- | --- | --- | --- | --- |
| CCc1nc2c(cnn2CC)c(NC2CCOCC2)c1CNC(=O)c1cccc(CC(C)NC[C@H](O)c2ccc(O)c3[nH]c(=O)ccc23)c1 (stereo partly drawn) [Example 1, N-[[1,6-Diethyl-4-[(tetrahydro-2H-pyran-4-yl)amino]-1H-pyrazolo[3,4-b]pyridin-5-yl]methyl]-3-[2-[[(R)-2-hydroxy-2-(8-hydroxy-2-oxo-1,2-dihydroquinolin-5-yl)ethyl]amino]propyl]benzamide] | < 100 | < 100 | < 100 | < 100 |
| CCc1nc2c(cnn2CC)c(NC2CCOCC2)c1CNC(=O)c1cccc(CC(C)NC[C@H](O)c2ccc(O)c(CO)c2)c1 (stereo partly drawn) [Example 2, N-[[1,6-Diethyl-4-[(tetrahydro-2H-pyran-4-yl)amino]-1H-pyrazolo[3,4-b]pyridin-5-yl]methyl]-3-[2-[[(R)-2-hydroxy-2-[4-hydroxy-3-(hydroxymethyl)phenyl]ethyl]amino]propyl]benzamide] | < 100 | > 300 | < 100 | < 100 |
| CCc1nc2c(cnn2CC)c(NC2CCOCC2)c1CNC(=O)c1cccc(CC(C)(C)NC[C@H](O)c2ccc(O)c(CO)c2)c1 [Example 3, (R)—N-[[1,6-Diethyl-4-[(tetrahydro-2H-pyran-4-yl)amino]-1H-pyrazolo[3,4-b]pyridin-5-yl]methyl]-3-[2-[[2-hydroxy-2-[4-hydroxy-3-(hydroxymethyl)phenyl]ethyl]amino]-2-methylpropyl]benzamide] | < 100 | < 300 | < 300 | < 100 |
| CCc1nc2c(cnn2CC)c(NC2CCOCC2)c1CNC(=O)c1cccc(CC(C)(C)NC[C@H](O)c2ccc(O)c3[nH]c(=O)ccc23)c1 [Example 4, (R)—N-[[1,6-Diethyl-4-[(tetrahydro-2H-pyran-4-yl)amino]-1H-pyrazolo[3,4-b]pyridin-5-yl]methyl]-3-[2-[[2-hydroxy-2-(8-hydroxy-2-oxo-1,2-dihydroquinolin-5-yl)ethyl]-amino]-2-methylpropyl]benzamide] | < 100 | < 100 | < 100 | < 100 |
| CCc1nc2c(cnn2CC)c(NC2CCOCC2)c1CNC(=O)c1cccc(CNC[C@H](O)c2ccc(O)c3[nH]c(=O)ccc23)c1 [Example 5, (R)—N-[[1,6-Diethyl-4-[(tetrahydro-2H-pyran-4-yl)amino]-1H-pyrazolo[3,4-b]pyridin-5-yl]methyl]-3-[[[2-hydroxy-2-(8-hydroxy-2-oxo-1,2-dihydroquinolin-5-yl)ethyl]amino]methyl]benzamide] | < 100 | < 300 | < 100 | < 100 |
| CCc1nc2c(cnn2CC)c(NC2CCOCC2)c1CNC(=O)c1ccc(CNC[C@H](O)c2ccc(O)c3[nH]c(=O)ccc23)cc1 [Example 6, (R)—N-[[1,6-diethyl-4-[(tetrahydro-2H-pyran-4-yl)amino]-1H-pyrazolo[3,4-b]pyridin-5-yl]methyl]-4-[[[2-hydroxy-2-(8-hydroxy-2-oxo-1,2-dihydroquinolin-5-yl]ethyl]amino]methyl]benzamide] | < 100 | > 300 | < 100 | < 100 |
| CCc1nc2c(cnn2CC)c(NC2CCOCC2)c1CNC(=O)c1cccc(CNC[C@H](O)c2ccc(O)c(CO)c2)c1 [Example 7, (R)—N-[[1,6-Diethyl-4-[(tetrahydro-2H-pyran-4-yl)amino]-1H-pyrazolo[3,4-b]pyridin-5-yl]methyl]-3-[[[2-hydroxy-2-[4-hydroxy-3-(hydroxymethyl)phenyl]ethyl]amino]methyl]benzamide] | < 100 | > 300 | > 300 | > 300 |

Continued, in another order:

| IC50 [1] [nM] | IC50 [2] [nM] | EC50 [3] [nM] | Structure (SMILES) | EC50 [4] [nM] |
| --- | --- | --- | --- | --- |
| < 100 | > 300 | > 300 | CCc1nc2c(cnn2CC)c(NC2CCOCC2)c1CNC(=O)c1ccc(CNC[C@H](O)c2ccc(O)c(CO)c2)cc1 [Example 8, (R)—N-[[1,6-diethyl-4-[(tetrahydro-2H-pyran-4-yl)amino]-1H-pyrazolo[3,4-b]pyridin-5-yl]methyl]-4-[[[2-hydroxy-2-[4-hydroxy-3-(hydroxymethyl)phenyl]ethyl]amino]methyl]benzamide] | < 300 |
| < 100 | < 100 | < 100 | CCc1nc2c(cnn2CC)c(NC2CCOCC2)c1CNC(=O)c1ccc(CCCCCNC[C@H](O)c2ccc(O)c3[nH]c(=O)ccc23)cc1 [Example 9, (R)—N-[[1,6-diethyl-4-[(tetrahydro-2H-pyran-4-yl)amino]-1H-pyrazolo[3,4-b]pyridin-5-yl]methyl]-4-[5-[[2-hydroxy-2-(8-hydroxy-2-oxo-1,2-dihydroquinolin-5-yl)ethyl]amino]pentyl]benzamide] | < 100 |
|  | < 100 | < 100 | CCc1nc2c(cnn2CC)c(NC2CCOCC2)c1CNc1c(Nc2ccc(CCCCCNC[C@H](O)c3ccc(O)c4[nH]c(=O)ccc34)cc2)c(=O)c1=O [Example 13, (R)-3-(((1,6-diethyl-4-((tetrahydro-2H-pyran-4-yl)amino)-1H-pyrazolo[3,4-b]pyridin-5-yl)methyl)amino)-4-((4-(5-((2-hydroxy-2-(8-hydroxy-2-oxo-1,2-dihydroquinolin-5-yl)ethyl)amino)pentyl)phenyl)amino)cyclobut-3-ene-1,2-dione] | < 100 |
|  | < 100 | < 100 | CCc1nc2c(cnn2CC)c(NC2CCOCC2)c1CNC(=O)Nc1ccc(CCCCOCCCCCCNC[C@H](O)c2ccc(O)c3[nH]c(=O)ccc23)cc1 [Example 14, (R)-1-((1,6-diethyl-4-((tetrahydro-2H-pyran-4-yl)amino)-1H-pyrazolo[3,4-b]pyridin-5-yl)methyl)-3-(4-(4-((6-((2-hydroxy-2-(8-hydroxy-2-oxo-1,2-dihydroquinolin-5-yl)ethyl)amino)hexyl)oxy)butyl)phenyl)urea] | < 100 |
|  | < 100 | < 100 | CCc1nc2c(cnn2CC)c(NC2CCOCC2)c1CNC(=O)Nc1ccc(C#CCCCNC[C@H](O)c2ccc(O)c3c2OCC(=O)N3)cc1 [Example 15] | < 100 |
